Legend:
Format in all cases: biochemical
[1] = ABTS radical cation scavenging (decolorization) assay; conditions: mean ± SEM, n = 3
Description: The ABTS assay is based on the direct quenching of the ABTS cation radical (ABTS^•+) by antioxidants. The assay is carried out by spectrophotometric determination of a decrease in absorbance of a stable dark green ABTS^•+ solution after its interaction with an antioxidant compound [56]. The measurements were performed as previously described in detail. The results are expressed as TEAC values (Trolox equivalent antioxidant capacity) and IC50 values (compound concentration required for 50% reduction of the ABTS radical).
Radical scavenging activity of the compounds was assessed using the ABTS radical cation (ABTS^•+) decolorization assay with some modifications. ABTS (2,2′-azinobis-(3-ethylbenzothiazoline-6-sulfonic acid)) was purchased from Tokyo Chemical Industry Co., Ltd. (Tokyo, Japan), and potassium persulfate (dipotassium peroxodisulfate), Trolox (6-hydroxy-2,5,7,8-tetramethylchroman-2-carboxylic acid), and HPLC-grade ethanol and DMSO were obtained from Sigma-Aldrich (Saint Louis, MO, USA). Aqueous solutions were prepared using deionized water. All test compounds were dissolved in DMSO.
The solution of cation radical ABTS^•+ was produced by incubation of an aqueous solution of 7 mM ABTS and 2.45 mM potassium persulfate solution in equal quantities for 12–16 h at room temperature in the dark. Radical scavenging capacity of the compounds was analyzed by mixing 10 μL of compound with 240 μL of ABTS^•+ working solution in ethanol (100 μM final concentration). Data were given for 1 h of incubation of compounds with ABTS^•+. The reduction in absorbance was measured spectrophotometrically at 734 nm using an xMark microplate UV/VIS microplate spectrophotometer (Bio-Rad, Hercules, CA, USA).
Ethanol blanks were run in each assay. Values were obtained from three replicates of each sample and three independent experiments.
Standard antioxidant Trolox was used as a reference compound. Antioxidant capacity as Trolox equivalent (TEAC) values was determined as the ratio between the slopes obtained from the linear correlation of the ABTS radical absorbance with the concentrations of tested compounds and Trolox. Quercetin was used as a positive control. For the test compounds that reduced ABTS^•+ absorbance by more than 60% at 100 µM, we also determined the IC50 values (the compound concentration required for a 50% reduction of the ABTS radical). The compounds were tested in the concentration range of 0.5–400 µM.

[2] = FRAP (ferric reducing antioxidant power) assay; conditions: mean ± SEM, n = 3; 1 h, 37 °C, pH 3.6
Description: The FRAP (ferric reducing antioxidant power) assay measures the ability of antioxidants to reduce the ferric 2,4,6-tripyridyl-s-triazine complex [Fe(TPTZ)2]^3+ to the intensely blue ferrous complex [Fe(TPTZ)2]^2+ in an acidic medium. The measurements were performed as previously described in detail. The results are expressed as TE (Trolox equivalents).
The FRAP (ferric reducing antioxidant power) assay measures the ability of antioxidants to reduce the ferric 2,4,6-tripyridyl-s-triazine complex [Fe (TPTZ)2]^3+ to the intensely blue ferrous complex [Fe (TPTZ)2]^2+ (λ = 593 nm) in acidic medium. 2,4,6-Tris(pyridin-2-yl)-1,3,5-triazine (TPTZ), FeCl3·6H2O, Trolox, quercetin and DMSO were obtained from Sigma-Aldrich Chemical Co. (St. Louis, MO, USA). The FRAP reagent contained 2.5 mL of 10 mM TPTZ solution in 40 mM HCl, 2.5 mL of 20 mM FeCl3·6H2O water solution, and 25 mL of 0.3 M acetate buffer (pH 3.6). Aliquots of 10 µL of the test compound solution in DMSO (0.5 mM) were mixed with 240 µL of FRAP reagent, and the absorbance of the mixture was measured spectrophotometrically (FLUOStar OPTIMA microplate spectrophotometer (BMG Labtech, Ortenberg, Germany)) at 600 nm after 1 h incubation at 37 °C against a blank. Trolox was used as a reference compound. Quercetin was used as a positive control. A calibration curve with linear formula y = 0.03x (R^2 = 0.998, p < 0.0001) was prepared for Trolox solutions in DMSO at a range of 2.5–100 µM, and the results are expressed as Trolox equivalents (TE), the values calculated as the ratio of the concentrations of Trolox and the test compound, resulting in the same effect.

[3] = ORAC-FL (oxygen radical absorbance capacity) assay; conditions: mean ± SEM, n = 3; 2 h; 10 μM compound and Trolox
Text: In the oxygen radical absorbance capacity (ORAC-FL) assay, 2,2′-azobis-(2-methylpropionamidine) dihydrochloride (AAPH) is used as a free peroxyl radical generator, and fluorescein (FL) is used as a fluorescent probe. The method is based on measuring the decrease in the intensity of fluorescence with time, which characterizes the degree of decay of the fluorescent probe under the influence of peroxyl radicals. In the presence of antioxidants, the degree of decay of the fluorescent probe decreases and, accordingly, the fluorescence intensity increases. The results are expressed as TE (Trolox equivalents).
The ORAC assay utilizes a biologically relevant radical source, 2,2′-azobis(2-amidinopropane) dihydrochloride (AAPH)-derived peroxyl radicals. Thus, it is a more physiologically relevant assay than ABTS and FRAP.
The oxygen radical absorbance capacity (ORAC) was determined by the ability of compounds to protect fluorescein (FL) from peroxyl radicals that are generated by AAPH according to the known method with minor variations. The reaction was carried out at 37 °C in black 96-well plates (SPL life sciences), and the final volume of the reaction mixture was 200 µL per well. The fluorescence was recorded by Tecan M1000 PRO microplate reader (Switzerland) at 485 nm excitation and 520 nm emission.
The 0.7 mM fluorescein sodium salt stock solution in PBS pH 7.4 (137 mM sodium chloride, 2.7 mM potassium chloride, and 10 mM phosphate buffer) was prepared and stored at 4–5 °C no longer than one month. An aliquot of the fluorescein stock solution was further diluted with PBS immediately before each assay to yield a 70 nM working solution. The 133 mM AAPH solution in PBS was prepared immediately before use. The test compounds and Trolox standard were dissolved in DMSO to 400 μM. The final concentration was 10 μM for all of the samples.
The blank was composed of 15 μL PBS pH 7.4, 5 μL DMSO (final concentration: 2.5% (v/v)), 120 μL FL, and 60 μL AAPH, and it was included in each assay. PBS pH 7.4 (15 μL), antioxidant (the test compound or Trolox, 5 μL), and FL (120 μL, final concentration: 42 nM) solutions were placed in a black 96-well microplate and were pre-incubated for 15 min at 37 °C. AAPH solution (60 μL, final concentration 40 mM) was then added rapidly using a multichannel pipette. The fluorescence was recorded every minute for 2 h. A Trolox standard curve was also obtained in each assay. All reactions were carried out in quadruplicate, and two to four independent assays were performed for each sample.
Antioxidant curves (fluorescence vs. time) were first normalized to the curve of the blank (without antioxidant) corresponding to the same assay, and the net AUC corresponding to a sample was calculated by subtracting the AUC corresponding to the blank. The ORAC value was obtained by dividing the latter curve by the Trolox curve obtained in the same assay at 10 μM concentrations of compounds and Trolox. Final ORAC values, Trolox equivalents (TE), were expressed as μmol test compounds per μmol Trolox, where the value of TE for Trolox was taken as 1. Data were expressed as means ± SEM.

[4] = ORAC-FL (oxygen radical absorbance capacity) assay; conditions: mean ± SEM, n = 3; 2 h; read-out: ORAC-FL IC50 (compound concentration required for 50% reduction of peroxyl radical) (converted)

## Cc1c(C)c2c(c(C)c1O)CCC(C)(C(=O)O)O2 (centres unmarked) [Trolox, 6-hydroxy-2,5,7,8-tetramethylchroman-2-carboxylic acid, reference compound]
[1]; 1 h, read-out: ABTS IC50 (compound concentration required for 50% reduction of the ABTS radical-cation) (converted)
  IC50: 20.1 µM
[1]; 1 h incubation, relative to Trolox
  ABTS TEAC (Trolox equivalent antioxidant capacity): 1.0 TEAC
[2]
  FRAP TE (Trolox equivalent): 1.0 TE
[3]
  ORAC-FL TE (Trolox equivalent): 1.0 TE
[4]
  IC50: 23.6 µM

Reference: article PMC9699072 (Molecules, 2022)
